Measured values: patent publication US8207321B2, “Method of obtaining idolocarbazoles using biosynthetic rebeccamycin genes” (Universidad De Oviedo, priority 2001, dated 2012)

Columns and labels:
several tumor cell lines = settings: cited from earlier work
[1] = tested on: several tumors implanted in mice; settings: cited from earlier work
S. albus J1074/14E8 = assay: Paper disc growth inhibition by exogenously added rebeccamycin, strain with cosmid 14E8; assay type: cell-based, Streptomyces albus; settings: Bennett's agar, 28° C. for 4 days
Description: (§1) Therefore, cosmids 14E8 and 17A12, which conferred the ability to produce rebeccamycin, should also confer resistance to rebeccamycin. In order to confirm this point, we studied the effect of exogenously added rebeccamycin on the growth of S. albus J1074/14E8 and control strain S. albus J1074/pKC505. For this purpose, spores of each strain were used to inoculate plates of Bennett's agar (Kieser et al. Practical Streptomyces genetics, The John Innes Foundation, Norwich, UK, 2000) containing 25 μg/ml apramycin. Different amounts of rebeccamycin (dissolved in acetone) were added to paper discs placed on this pre-seeded medium. The plates were left at 4° C. for an hour to allow diffusion of the rebeccamycin solution, and then they were incubated at 28° C. for 4 days.

Micrococcus luteus = settings: cited from earlier work
S. albus J1074/pKC505 = assay: Paper disc growth inhibition by exogenously added rebeccamycin, control strain; assay type: cell-based, Streptomyces albus; settings: 100 μg rebeccamycin on paper disc, Bennett's agar, 28° C. for 4 days
Description: as §1

Staphylococcus aureus = settings: cited from earlier work
S. albus J1074 = assay: Growth inhibition of Streptomyces spp.; assay type: cell-based, Streptomyces albus
Streptococcus faecalis = settings: cited from earlier work

SMILES: CO[C@H]1[C@H](O)[C@@H](O)[C@H](n2c3c(Cl)cccc3c3c4c(c5c6cccc(Cl)c6[nH]c5c32)C(=O)NC4=O)O[C@@H]1CO [Rebeccamycin]
- antitumor activity in vitro (several tumor cell lines): antitumor activity
- antitumor activity in vivo [1]: antitumor activity
- growth of S. albus J1074/14E8 (S. albus J1074/14E8; 100 μg rebeccamycin on paper disc): fully resistant
- growth of S. albus J1074/14E8 (S. albus J1074/14E8; 200 μg rebeccamycin on paper disc): fully resistant
- antibacterial activity (Micrococcus luteus): antibacterial activity
- growth of S. albus J1074/pKC505 (S. albus J1074/pKC505): totally inhibited
- antibacterial activity (Staphylococcus aureus): antibacterial activity
- inhibition of growth of Streptomyces spp. including S. albus J1074 (S. albus J1074): weak inhibition of growth
- antibacterial activity (Streptococcus faecalis): antibacterial activity
